Laboratory results reported in patent US20060035901A1, “Methotrexate derivatives useful for treating cancer and arthritis” (Serenex, Inc., priority 2004, published 2006).
pIC50: −log10 of the molar value.

Legend:
[1] = molecular target: Her2 (Homo sapiens, UniProt P04626); test: Elution of Her2 from ATP-Sepharose column by compound (Proteome Mining), IC50 estimate; type: binding; details: estimated from percent of protein eluted from ATP-Sepharose column, gel densitometry; read-out: Approximate IC50 for Her2
Procedure: A proteome containing a known quantity of Her2, EGFR, and B-Raf was run over an ATP-Sepharose™ column in order to bind all purine-binding proteins. […] The ATP-Sepharose™ was washed several times, and then eluted with the compound of Formula III. The experiment was run in duplicate at concentrations of 20 μM, 100 μM, and 500 μM of the compound of Formula III. The eluted fractions were run on a 1-dimensional SDS polyacrylamide gel. Gels were stained with a fluorescent stain such as sypro ruby (a highly sensitive fluorescent protein stain that can readily detect less than 1 fmol of total protein, i.e., less than 0.04 ng for a 40 kDa protein). The gels were imaged using a standard flat bed gel imager and the amount of protein estimated by densiometry. The percent of protein eluted from the column at each concentration was determined and IC50 values were calculated from these estimates. Where necessary, the eluted proteins were cut out of the gel, and identified using mass spectral techniques.

[2] = molecular target: T1, propionyl-CoA carboxylase subunit alpha (PCCA) (Sus scrofa, UniProt P0DTA4); test: Elution of PCCA from ATP-Sepharose column loaded with porcine liver proteome, IC50 estimate; type: binding; details: estimated from percent of protein eluted from ATP-Sepharose column, read-out: Approximate IC50 for PCCA
T1 construct: a porcine liver proteome was run over an ATP-Sepharose™ column; from tissue; host or cells: porcine liver
T1 sequence (P0DTA4 53-730): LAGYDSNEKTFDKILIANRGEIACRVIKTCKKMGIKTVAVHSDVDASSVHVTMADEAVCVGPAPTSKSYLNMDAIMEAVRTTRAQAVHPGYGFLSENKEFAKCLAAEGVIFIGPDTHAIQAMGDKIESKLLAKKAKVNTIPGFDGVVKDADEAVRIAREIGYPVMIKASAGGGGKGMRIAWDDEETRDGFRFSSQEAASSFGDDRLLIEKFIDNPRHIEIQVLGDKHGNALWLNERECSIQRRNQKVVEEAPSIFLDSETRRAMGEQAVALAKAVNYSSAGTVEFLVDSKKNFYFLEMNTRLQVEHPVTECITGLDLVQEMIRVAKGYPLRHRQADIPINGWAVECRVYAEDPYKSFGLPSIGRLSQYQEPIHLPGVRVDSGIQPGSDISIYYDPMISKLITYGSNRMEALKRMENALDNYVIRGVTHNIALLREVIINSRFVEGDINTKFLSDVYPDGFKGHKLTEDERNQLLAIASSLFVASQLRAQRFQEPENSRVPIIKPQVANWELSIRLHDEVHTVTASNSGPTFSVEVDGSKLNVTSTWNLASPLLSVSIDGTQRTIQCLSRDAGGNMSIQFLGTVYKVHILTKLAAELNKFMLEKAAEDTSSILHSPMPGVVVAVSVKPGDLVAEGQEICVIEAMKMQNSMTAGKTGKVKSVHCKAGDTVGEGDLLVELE
T1 sequence (P79384 29-539 partner): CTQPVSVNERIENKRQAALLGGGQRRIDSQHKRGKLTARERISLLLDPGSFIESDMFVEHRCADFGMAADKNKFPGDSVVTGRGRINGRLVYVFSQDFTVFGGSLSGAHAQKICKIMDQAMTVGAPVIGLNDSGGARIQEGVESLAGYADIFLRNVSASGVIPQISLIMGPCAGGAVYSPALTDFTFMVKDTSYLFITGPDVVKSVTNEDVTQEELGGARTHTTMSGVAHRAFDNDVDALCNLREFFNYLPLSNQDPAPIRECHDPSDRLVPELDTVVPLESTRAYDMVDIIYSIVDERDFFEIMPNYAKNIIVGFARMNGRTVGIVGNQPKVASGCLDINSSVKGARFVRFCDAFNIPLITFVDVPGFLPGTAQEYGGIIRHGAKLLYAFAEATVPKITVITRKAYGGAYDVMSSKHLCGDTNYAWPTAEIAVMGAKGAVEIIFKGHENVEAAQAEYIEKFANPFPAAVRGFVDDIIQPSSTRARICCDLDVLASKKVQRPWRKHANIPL
Procedure: Similar experiments were carried out to compare the IC50 values for PYC, PCCA, and PCCB. In these trials, a porcine liver proteome was run over an ATP-Sepharose™ column to bind all purine-binding proteins. The ATP-Sepharose™ column was washed several times, and then eluted with the compound of Formula III at concentrations of 1 μM, 5 μM, 10 μM, 50 μM, 100 μM, and 500 μM to identify proteins that bound to this compound.
Gels were stained with a fluorescent stain such as sypro ruby (a highly sensitive fluorescent protein stain that can readily detect less than 1 fmol of total protein, i.e., less than 0.04 ng for a 40 kDa protein). The gels were imaged using a standard flat bed gel imager and the amount of protein estimated by densiometry. The percent of protein eluted from the column at each concentration was determined and IC50 values were calculated from these estimates. Where necessary, the eluted proteins were cut out of the gel, and identified using mass spectral techniques.
The values obtained were then compared to those for DHFR.

Her2, sequence (P04626 23-1255, species assumed): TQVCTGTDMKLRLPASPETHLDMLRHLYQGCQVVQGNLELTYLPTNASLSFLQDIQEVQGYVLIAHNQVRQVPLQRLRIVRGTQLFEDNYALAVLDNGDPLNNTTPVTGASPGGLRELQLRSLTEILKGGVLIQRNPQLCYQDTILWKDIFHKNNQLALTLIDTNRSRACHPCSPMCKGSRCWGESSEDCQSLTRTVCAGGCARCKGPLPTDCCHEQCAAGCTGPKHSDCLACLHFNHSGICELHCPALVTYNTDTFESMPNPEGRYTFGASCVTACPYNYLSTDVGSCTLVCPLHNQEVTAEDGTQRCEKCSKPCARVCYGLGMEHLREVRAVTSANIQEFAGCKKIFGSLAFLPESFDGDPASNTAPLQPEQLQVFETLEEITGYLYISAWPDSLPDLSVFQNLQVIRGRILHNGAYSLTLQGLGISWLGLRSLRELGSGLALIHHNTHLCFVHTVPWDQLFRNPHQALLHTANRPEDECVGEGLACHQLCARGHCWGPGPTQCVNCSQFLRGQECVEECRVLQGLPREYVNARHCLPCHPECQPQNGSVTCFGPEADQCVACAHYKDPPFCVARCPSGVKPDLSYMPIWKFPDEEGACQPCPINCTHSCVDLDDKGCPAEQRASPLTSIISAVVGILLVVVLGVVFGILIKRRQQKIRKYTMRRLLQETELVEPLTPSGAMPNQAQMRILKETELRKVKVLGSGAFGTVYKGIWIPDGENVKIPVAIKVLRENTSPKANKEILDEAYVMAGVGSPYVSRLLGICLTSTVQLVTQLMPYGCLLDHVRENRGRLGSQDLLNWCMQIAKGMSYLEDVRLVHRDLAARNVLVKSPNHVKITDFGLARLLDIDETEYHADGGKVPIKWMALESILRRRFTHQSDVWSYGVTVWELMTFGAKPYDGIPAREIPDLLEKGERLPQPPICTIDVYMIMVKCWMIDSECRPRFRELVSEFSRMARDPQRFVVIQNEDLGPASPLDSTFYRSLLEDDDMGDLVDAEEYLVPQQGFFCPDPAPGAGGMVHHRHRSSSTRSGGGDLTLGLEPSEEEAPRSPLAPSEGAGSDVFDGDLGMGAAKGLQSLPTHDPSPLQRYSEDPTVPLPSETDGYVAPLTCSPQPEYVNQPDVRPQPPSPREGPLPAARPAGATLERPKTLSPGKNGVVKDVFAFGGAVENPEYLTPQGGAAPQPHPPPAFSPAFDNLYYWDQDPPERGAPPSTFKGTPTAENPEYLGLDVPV

`C#CCN(Cc1cnc2nc(N)nc(N)c2n1)c1ccc(C(=O)NC(CCC(=O)O)C(=O)O)cc1C` (centres unmarked) [Formula III, 2-{4-[(2,4-diamino-pteridin-6-ylmethyl)-prop-2-ynyl-amino]-3-methyl-benzoylamino}-pentanedioic acid] gave a pIC50 [1] of 6.05 and a pIC50 [2] of 5.70.

Work on `Cc1cc(C(=O)NC(CCC(=O)O)C(=O)O)ccc1N(Cc1ccoc1)Cc1cnc2nc(N)nc(N)c2n1` (centres unmarked) [Formula VII] yielded a pIC50 [1] of 5.30 and a pIC50 [2] of 5.70.

In the case of `C#CCN(Cc1cnc2nc(N)nc(N)c2n1)c1ccc(C(=O)NC(CCC(=O)O)C(=O)O)cc1OC` (centres unmarked) [Formula VIII], the pIC50 [1] was 5.30 and the pIC50 [2] was 5.70.

Work on `C#CCN(Cc1cnc2nc(N)nc(N)c2n1)c1ccc(C(=O)NC(CCC(=O)O)C(=O)O)cc1OC(F)(F)F` (centres unmarked) [Formula IX] yielded a pIC50 [1] of 5.12 and a pIC50 [2] of 5.00.
